Results from patent US11980620B2, “Compounds and methods for treatment of Diamond Blackfan anemia” (THE CHILDREN'S MEDICAL CENTER CORPORATION, priority 2017, dated 2024).

Columns and labels:
Assay type in all cases: cell-based, human
DBA iPSCs = test: Cytotoxicity (Annexin and DAPI positive cells) at varying doses; settings: drug doses up to 20 μM
Excerpt: FIGS. 9A-9D show compounds screened for rescue of erythroid differentiation defects. […] (FIG. 9B) List of compounds screened that provided promising results. (FIG. 9C) FACS plots showing GlyA and CD71 expression levels for indicated genotype (top panels). Micrographs showing GlyA^+ CD71^+ cells in indicated genotype (bottom panels). (FIG. 9D) Plot showing the percentage of Annexin and DAPI positive cells following varying doses of SMER28.

[1] = tested on: CD34-5F or CB progenitors; test: Output of mature RBCs at end of stage III of erythroid culture
Protocol: (§1) (FIG. 12A) Erythroid differentiation of control and DBA CD34-5F cells treated with DMSO vehicle or SMER28 (10 μM) during the initial CD34^+ progenitor phase (day 0-4 of differentiation), or stage I of erythroid culture (day 4-9 of differentiation). Percent of erythroid cells after stage I of differentiation is indicated in top left for each condition, and quantitated in (FIG. 12B). Data are shown as mean f s.e.m. of 4 independent experiments, with 2 control and 4 DBA iPSCs. (FIG. 12C) Same as (FIG. 12A) for CB CD34+ cells transduced with shRPS19 hairpins. GFP^+ RPS19^sh and GFP^− control cells were quantitated separately. […] (FIG. 12D) RBC pellets at the end of stage III initiated with equal numbers of CD34-5F or CB progenitors. SMER28 was added at […]. (FIG. 12E) May-Grunwald-Giemsa stain of erythroid cells from CB CD34^+ at end of stage III. Arrows indicate enucleated RBCs, which are quantitated by flow cytometry. (FIG. 12F) Quantitation of the enucleation efficiency (left) of GLYA^+ cells. Data in FIGS. 12E-12F represents 3 independent experiments. For all panels, *p<0.05, **p<0.01.
Erythroblasts proliferate rapidly to give rise to terminally differentiated RBCs. […]

DBA CD34-5F cells = test: Erythroid differentiation (CD71+GlyA+) of CD34-5F cells from DBA iPSCs
Protocol: (FIG. 8A) The distribution of 1440 compounds by Z-score in a proliferation-based screen of the Sigma LOPAC chemical library. DBA CD34-5F cells were plated in erythroid-promoting conditions in 384-well format. Erythroid proliferation was measured in the presence of 5 μM of each compound, and converted into Z-scores. The screen was carried out with 3 RPS19 DBA and 2 normal iPSC lines. (FIG. 88) Dose-dependent effect of SMER28 (in μM) on erythroid differentiation, shown as the absolute number of erythroid cells in each drug-treated condition normalized to vehicle (DMSO) control. Erythroid cells were analyzed on day 9 of differentiation using markers CD71 and GlyA. Dose curve was performed with DBA (n=5) and control (n=3) iPSCs. Non-linear regression curve was plotted to calculate EC50 values. (FIGS. 8C and 8D) Dose-dependent effect of SMER28 (in μM) on erythroid differentiation of CB CD34^+ RPS19^+ cells. (FIG. 8C) Absolute number of erythroid cells (analyzed on day 9) in each drug-treated condition normalized to vehicle (DMSO) control (4 independent experiments). Non-linear regression curve was plotted to calculate EC50 values. (FIG. 8D) Representative flow plots of control (shLUC) and RPS19th cells treated with DMSO or increasing doses of SMER28.
as §1
Erythroid differentiation. Differentiation was performed essentially as described (Lee et al., 2015). CD34 expansion phase (4 days): To initiate differentiation CD34-5F cells were cultured in progenitor media without Dox. Stage I (5 days): Media were changed to: IMDM+1% BSA (Gibco), 20% FBS (Stem Cell Technologies), 1 mM L-glutamine, penicillin/streptomycin, 500 μg/ml h-transferrin (Sigma), 10 μg/ml human insulin (CellSciences), 1 μM β-estradiol, 1 μM Dex, 6U Epo (CellSciences), 100 μg/ml SCF, and 5 μg/ml IL-3. Cells were seeded at a density of <1×10^5 cells/ml in 24-well plates. Stage 11 (4 days). Media were changed to: IMDM+1% BSA, 20% FBS, 1 mM L-glutamine, penicillin/streptomycin, 500 μg/ml h-transferrin, 10 μg/ml human insulin, 6U Epo, and 50 μg/ml SCF. Cells were seeded at a density of <2×10^5 cells/ml in 24-well plates. Stage III (10 days) Media were changed to: IMDM+1% BSA, 20% FBS, 1 mM L-glutamine, penicillin/streptomycin, 500 μg/ml h-transferrin, 10 μg/ml human insulin, and 2U Epo. Cells were seeded at a density of <5×10^5 cells/ml in 24-well plates.
Drug treatments. […]

C=CCNc1ncnc2ccc(Br)cc12 [SMER28, 6-Bromo-N-2-propenyl-4-quinazolinam]
Cytotoxicity (DBA iPSCs): not observed
output of RBCs from erythroblasts ([1]; treatment of CD34+ progenitors only): comparable to vehicle controls
output of iPSC- and CB-derived mature RBCs ([1]; treatment of erythroblasts during stages I-III): enhanced
output of GlyA+ cells (DBA CD34-5F cells; 10 μM, treated only during initial expansion phase (day 0-4), DBA progenitors): increased output
CD71+GlyA- pre-erythroblasts (DBA CD34-5F cells; 10 μM, treatment during stage I (day 4-9)): expanded
number of GlyA+ cells (DBA CD34-5F cells; 10 μM, treatment of erythroblasts during stage I (day 4-9)): did not significantly increase
effect on number of erythroid cells normalized to vehicle (DBA CD34-5F cells; DBA iPSCs): 9.8 fold
EC50 (DBA CD34-5F cells; Homo sapiens, iPSC, 216 h, RPS19+/- and RPL5 DBA iPSCs, day 9, normalized to DMSO, 95% confidence interval 0.63 to 2.37 μM, read-out: EC50, absolute number of CD71+GlyA+ erythroid cells): 1500 nM
